These compounds were tested against T1, human ferroportin (Homo sapiens, UniProt Q9NP59) (assay: Biological in-vitro ferroportin internalization assay (luciferase reporter)). Conditions: average pEC50; stably-transfected CHO cell line expressing human ferroportin tagged to a luciferase reporter; 6 h incubation with test compound.
T1 construct: luciferase reporter (read with the Nano-Glo Luciferase Assay System); expressed in transfected cells; host or cells: CHO cells, stably transfected, expression induced with doxycycline
T1 sequence (Q9NP59 1-571): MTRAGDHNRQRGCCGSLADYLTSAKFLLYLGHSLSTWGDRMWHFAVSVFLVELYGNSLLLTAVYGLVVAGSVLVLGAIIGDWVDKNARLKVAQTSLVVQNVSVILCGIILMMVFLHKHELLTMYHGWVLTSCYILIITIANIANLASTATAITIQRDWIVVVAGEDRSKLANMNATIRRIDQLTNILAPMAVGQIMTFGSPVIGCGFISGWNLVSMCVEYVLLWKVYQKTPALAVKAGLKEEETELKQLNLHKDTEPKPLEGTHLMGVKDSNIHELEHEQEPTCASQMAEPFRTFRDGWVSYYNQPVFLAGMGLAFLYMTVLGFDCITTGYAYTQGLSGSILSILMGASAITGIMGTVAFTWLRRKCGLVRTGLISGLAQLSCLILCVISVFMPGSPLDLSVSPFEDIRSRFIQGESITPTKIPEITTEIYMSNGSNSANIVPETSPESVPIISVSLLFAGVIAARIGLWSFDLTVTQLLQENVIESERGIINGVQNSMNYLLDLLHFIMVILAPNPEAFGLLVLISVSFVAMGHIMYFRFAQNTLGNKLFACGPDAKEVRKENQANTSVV
Type: cell-based
How it was run: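 Read-out is Nano-Glo luciferase signal after 6 h compound exposure, with average pEC50 derived. Cells are a stable CHO line carrying luciferase-tagged human ferroportin, pre-loaded 24 h with ferric ammonium citrate and doxycycline-induced for 24 h.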
Work on `CN(CC(=O)Nc1cccc(F)c1)c1nc(-c2cc(OCCO)ccn2)nc2c1CCC2` [Compound 167, N-(3-fluorophenyl)-2-({2-[4-(2-hydroxyethoxy)pyridin-2-yl]-5H,6H,7H-cyclopenta[d]pyrimidin-4-yl}(methyl)amino)acetamide] yielded a pEC50 of 7.9. Compound `CN(CC(=O)Nc1cnn(C)c1)c1nc(-c2cc(OCC(F)(F)F)ccn2)nc2c1CCC2` [Compound 177, 2-[methyl({2-[4-(2,2,2-trifluoroethoxy)pyridin-2-yl]-5H,6H,7H-cyclopenta[d]pyrimidin-4-yl})amino]-N-(1-methyl-1H-pyrazol-4-yl)acetamide] has a pEC50 of 6.9. For `COc1ccnc(-c2nc3c(c(N(C)CC(=O)NC4CCOCC4)n2)CCC3)c1` [Compound 134, 2-{[2-(4-methoxypyridin-2-yl)-5H,6H,7H-cyclopenta[d]pyrimidin-4-yl](methyl)amino}-N-(oxan-4-yl)acetamide], the pEC50 was 6.9. For `COc1ccc2c(c1)CCN2C(=O)CN(C)c1nc(-c2cc(OCCO)ccn2)nc2c1CCC2` [Compound 335, 2-({2-[4-(2-hydroxyethoxy)pyridin-2-yl]-5H,6H,7H-cyclopenta[d]pyrimidin-4-yl}(methyl)amino)-1-(5-methoxy-2,3-dihydro-1H-indol-1-yl)ethan-1-one], the pEC50 was 8.4. Work on `CN(CC(=O)NC(C)(C)C)c1nc(-c2cc(F)ccn2)nc2c1CCC2` [Compound 58, N-tert-butyl-2-{[2-(4-fluoropyridin-2-yl)-5H,6H,7H-cyclopenta[d]pyrimidin-4-yl](methyl)amino}acetamide] yielded a pEC50 of 6.7. `Cc1ccnc(-c2nc3c(c(N(C)CC(=O)Nc4cccc(F)c4)n2)CCC3)c1` [Compound 66, N-(3-fluorophenyl)-2-{methyl[2-(4-methylpyridin-2-yl)-5H,6H,7H-cyclopenta[d]pyrimidin-4-yl]amino}acetamide] was tested, and the pEC50 was 7.7. `CC(C)NC(=O)[C@@H](C)N(C)c1nc(-c2cc(OCC(C)(C)O)ccn2)nc2c1CCC2` [Compound 453, (2R)-2-({2-[4-(2-hydroxy-2-methylpropoxy)pyridin-2-yl]-5H,6H,7H-cyclopenta[d]pyrimidin-4-yl}(methyl)amino)-N-(propan-2-yl)propanamide] showed a pEC50 of 8.1. Compound `COc1ccc(NC(=O)CN(C)c2nc(-c3cc4ccncc4cn3)nc3c2CCC3)cn1` [Compound 268, N-(6-methoxypyridin-3-yl)-2-{methyl[2-(2,7-naphthyridin-3-yl)-5H,6H,7H-cyclopenta[d]pyrimidin-4-yl]amino}acetamide] has a pEC50 of 6. `CN(CC(=O)NC12CC(C1)C2)c1nc(-c2cc(OCC(C)(C)O)ccn2)nc2c1CCC2` [Compound 383, N-{bicyclo[1.1.1]pentan-1-yl}-2-({2-[4-(2-hydroxy-2-methylpropoxy)pyridin-2-yl]-5H,6H,7H-cyclopenta[d]pyrimidin-4-yl}(methyl)amino)acetamide] gave a pEC50 of 7.8. `CN(CC(=O)N[C@@H]1CCC[C@@H]1O)c1nc(-c2cc(OCC(C)(C)O)ccn2)nc2c1CCC2` [Compound 397, 2-({2-[4-(2-hydroxy-2-methylpropoxy)pyridin-2-yl]-5H,6H,7H-cyclopenta[d]pyrimidin-4-yl}(methyl)amino)-N-[(1R,2S)-2-hydroxycyclopentyl]acetamide] was tested, and the pEC50 was 7.6. `CN(CC(=O)N1CCCCC1)c1nc(-c2cc(O[C@H]3CCOC3)ccn2)nc2c1CCC2` [Compound 343, 2-[methyl(2-{4-[(3S)-oxolan-3-yloxy]pyridin-2-yl}-5H,6H,7H-cyclopenta[d]pyrimidin-4-yl)amino]-1-(piperidin-1-yl)ethan-1-one] was tested, and the pEC50 was 7.7. With `CC(C)NC(=O)CN(C)c1nc(-c2cc(OCCN(C)C)ccn2)nc2c1CCC2(C)C` [Compound 456, 2-[(2-{4-[2-(dimethylamino)ethoxy]pyridin-2-yl}-7,7-dimethyl-5H,6H,7H-cyclopenta[d]pyrimidin-4-yl)(methyl)amino]-N-(propan-2-yl)acetamide] the pEC50 was 6.2. In the case of `CN(CC(=O)NC(C)(C)C)c1nc(-c2ncc(CCO)s2)nc2c1CCC2` [Compound 107, N-tert-butyl-2-({2-[5-(2-hydroxyethyl)-1,3-thiazol-2-yl]-5H,6H,7H-cyclopenta[d]pyrimidin-4-yl}(methyl)amino)acetamide], the pEC50 is reported as 5.7. `CN(C)CCOc1ccnc(-c2nc3c(c(NCC(=O)NC(C)(C)C)n2)CCC3)c1` [Compound 484, N-tert-butyl-2-[(2-{4-[2-(dimethylamino)ethoxy]pyridin-2-yl}-5H,6H,7H-cyclopenta[d]pyrimidin-4-yl)amino]acetamide] was tested, and the pEC50 was 7. Work on `CN(CC(=O)N1CCCC1)c1nc(-c2cc(OCC(C)(C)O)ccn2)nc2c1CCC2` [Compound 420, 2-({2-[4-(2-hydroxy-2-methylpropoxy)pyridin-2-yl]-5H,6H,7H-cyclopenta[d]pyrimidin-4-yl}(methyl)amino)-1-(pyrrolidin-1-yl)ethan-1-one] yielded a pEC50 of 8. Compound `CC(C)NC(=O)CN(C)c1nc(-c2cc(OCCN3CCSCC3)ccn2)nc2c1CCC2` [Compound 505, 2-[methyl(2-{4-[2-(thiomorpholin-4-yl)ethoxy]pyridin-2-yl}-5H,6H,7H-cyclopenta[d]pyrimidin-4-yl)amino]-N-(propan-2-yl)acetamide] has a pEC50 of 8.8. Work on `CN(CC(=O)NC(C)(C)C)c1nc(-c2cc(OC(C)(C)CO)ccn2)nc2c1CCC2` [Compound 425, N-tert-butyl-2-[(2-{4-[(1-hydroxy-2-methylpropan-2-yl)oxy]pyridin-2-yl}-5H,6H,7H-cyclopenta[d]pyrimidin-4-yl)(methyl)amino]acetamide] yielded a pEC50 of 8.3. With `CN(CC(=O)NC(C)(C)C)c1nc(-c2cocn2)nc2c1CCC2` [Compound 163, N-tert-butyl-2-{methyl[2-(1,3-oxazol-4-yl)-5H,6H,7H-cyclopenta[d]pyrimidin-4-yl]amino}acetamide] the pEC50 was 5.4. For `CN(Cc1ncn(-c2cccc(F)c2)n1)c1nc(-c2cc(OCCO)ccn2)nc2c1CCC2` [Compound 351, 2-({2-[4-({[1-(3-fluorophenyl)-1H-1,2,4-triazol-3-yl]methyl}(methyl)amino)-5H,6H,7H-cyclopenta[d]pyrimidin-2-yl]pyridin-4-yl}oxy)ethan-1-ol], the pEC50 was 7.6. Work on `CN(CC(=O)NC1CCOC1)c1nc(-c2cc(OCCO)ccn2)nc2c1CCC2` (centres unmarked) [Compound 149, 2-({2-[4-(2-hydroxyethoxy)pyridin-2-yl]-5H,6H,7H-cyclopenta[d]pyrimidin-4-yl}(methyl)amino)-N-(oxolan-3-yl)acetamide] yielded a pEC50 of 7.2. With `CC(C)NC(=O)[C@H](C)N(C)c1nc(-c2cc(OCCN(C)C)ccn2)nc2c1CCC2` [Compound 434, (2S)-2-[(2-{4-[2-(dimethylamino)ethoxy]pyridin-2-yl}-5H,6H,7H-cyclopenta[d]pyrimidin-4-yl)(methyl)amino]-N-(propan-2-yl)propanamide] the pEC50 was 7.4. For `CN(CC(=O)NC(C)(C)C)c1nc(-c2cc(OCC(O)C(F)(F)F)ccn2)nc2c1CCC2` (centres unmarked) [Compound 426, N-tert-butyl-2-[methyl({2-[4-(3,3,3-trifluoro-2-hydroxypropoxy)pyridin-2-yl]-5H,6H,7H-cyclopenta[d]pyrimidin-4-yl})amino]acetamide], the pEC50 was 8.4. Work on `COc1ccc(NC(=O)CN(C)c2nc(-c3cc(OCC4CC4)ccn3)nc3c2CCC3)cn1` [Compound 224, 2-({2-[4-(cyclopropylmethoxy)pyridin-2-yl]-5H,6H,7H-cyclopenta[d]pyrimidin-4-yl}(methyl)amino)-N-(6-methoxypyridin-3-yl)acetamide] yielded a pEC50 of 7.9. Work on `CN(C)c1ccnc(-c2nc3c(c(N4CCCCCC4)n2)CCC3)c1` [Compound 13, 2-[4-(azepan-1-yl)-5H,6H,7H-cyclopenta[d]pyrimidin-2-yl]-N,N-dimethylpyridin-4-amine] yielded a pEC50 of 6.4. Compound `CN(CC(=O)NC(C)(C)C)c1nc(-c2cn(C)cn2)nc2c1CCC2` [Compound 125, N-tert-butyl-2-{methyl[2-(1-methyl-1H-imidazol-4-yl)-5H,6H,7H-cyclopenta[d]pyrimidin-4-yl]amino}acetamide] has a pEC50 of 7.5. Compound `CN(CC(=O)NC(C)(C)C)c1nc(-c2cc(CCO)ccn2)nc2c1CCC2` [Compound 113, N-tert-butyl-2-({2-[4-(2-hydroxyethyl)pyridin-2-yl]-5H,6H,7H-cyclopenta[d]pyrimidin-4-yl}(methyl)amino)acetamide] has a pEC50 of 7.7. `COc1ccc(NC(=O)CN(C)c2nc(-c3cc4ncccc4cn3)nc3c2CCC3)cn1` [Compound 257, N-(6-methoxypyridin-3-yl)-2-{methyl[2-(1,6-naphthyridin-7-yl)-5H,6H,7H-cyclopenta[d]pyrimidin-4-yl]amino}acetamide] gave a pEC50 of 7. For `CN(CC(=O)NC(C)(C)C)c1nc(-c2cc(OCCN3CCOCC3)ccn2)nc2c1CCC2` [Compound 460, N-tert-butyl-2-[methyl(2-{4-[2-(morpholin-4-yl)ethoxy]pyridin-2-yl}-5H,6H,7H-cyclopenta[d]pyrimidin-4-yl)amino]acetamide], the pEC50 was 8.2. With `CN(CC(=O)NC(C)(C)C)c1nc(-c2cc(OCC3(O)CCCC3)ccn2)nc2c1CCC2` [Compound 381, N-tert-butyl-2-[(2-{4-[(1-hydroxycyclopentyl)methoxy]pyridin-2-yl}-5H,6H,7H-cyclopenta[d]pyrimidin-4-yl)(methyl)amino]acetamide] the pEC50 was 8.3.

Reference: US11746100B2 (GLOBAL BLOOD THERAPEUTICS, INC., priority 2020, dated 2023)
